Data: patent publication US20120135081A1, “HYDROPHOBINS FOR DISPERSING ACTIVE AGENTS” (TEKNOLOGIAN TUTKIMUSKESKUS VTT, priority 2009, published 2012)

Assay: Particle size and morphology by transmission electron microscopy (TEM)
Format: physicochemical
Procedure: Precipitation of beclomethasone was carried out by modifying a method published earlier, where the drug was crystallised either in pure water or in the presence of a surfactant, Tween-80 (Wang et al. 2007^xi, Matteucci et al., 2006^xii). 34.8 mM beclomethasone dipropionate (BDB, MW 521.1) solution was prepared by dissolving the BDP in methanol. 0.5 ml of BDP solution was poured into 20 ml of pure deionized water with 0-0.15 wt-% (0-208.3 μM) HFBII. The resulting aqueous solution had 0.05 wt-% BDP. Both solutions were filtered with 0.2 μm syringe filter to remove possible impurities prior to use. The receiving liquid was stirred vigorously with a magnetic stirrer and temperature of the solution was controlled by keeping the sample in an ice bath or in room temperature during the precipitation. The precipitate was observed as a turbid solution immediately after BDP addition.
Transmission electron microscopy (TEM): 20 min after precipitation 20 μl of the nanoparticle dispersions were dried on formvar film-coated copper grids with mesh size 300.
The synthesis was done as in the earlier section, except that the drug used was itraconazole. Mass ratios of 2:1, 1:1 and 1:2 of HFBII:itraconazole were tested. TEM was used to study the size and morphology of the particles. […] Monodispersity increased with increasing HFBII amount. […]

- crystals formed (size and habit) (precipitated from methanol into water without HFBII): a few micrometer long needles
- particle size (precipitated with HFBII at room temperature, TEM): several micrometers
SMILES: CCC(=O)OCC(=O)[C@@]1(OC(=O)CC)[C@@H](C)C[C@H]2[C@@H]3CCC4=CC(=O)C=C[C@]4(C)[C@@]3(Cl)[C@@H](O)C[C@@]21C [BDP, beclomethasone dipropionate]
